Assay results published in patent publication US20230404989A1, “GRK2 INHIBITION BY PAROXETINE AMELIORATES OSTEOARTHRITIS” (THE PENN STATE RESEARCH FOUNDATION, priority 2020, published 2023).

How the values were obtained:
DMM mice [1] = experiment: DMM drug treatment study: OARSI scoring and histomorphometry of knee cartilage; assay type: in vivo, mouse
Experimental: Drug treatment studies: In twelve-week old male wild type C57BL/6 mice that received DMM surgeries, vehicle (PBS), paroxetine (5 mg/kg/day), fluoxetine (5 mg/kg/day), gallein (10 mg/kg/day) or indomethacin (2.5 mg/kg/day) were administered daily by ip injection. Drug treatment was initiated 8 weeks following DMM to determine the role of GRK2 signaling in the progression of OA.
Twelve-week-old male mice were administered DMM surgery to the right knee and sham surgery to the left knee as described (S. S. Glasson, Osteoarthritis. Cartilage. 15, 1061-1069 (2007)). Briefly, mice were anesthetized via intraperitoneal injection of ketamine (60 mg/kg) and xylazine (4 mg/kg), and a 5-mm-long incision was made on the medial side of the knee. Under a dissecting microscope, an incision was made along the medial side of the patellar tendon, opening the joint space. Using a #11 scalpel, the medial meniscotibial ligament (MMTL) was transected, enabling the medial meniscus to move freely. A similar skin incision was made in sham knees, but the joint structure was not disturbed. For the sham group, both right and left knees had sham surgeries. After surgery, 4-0 silk sutures were used to close the incision using an interrupted pattern. Mice were provided analgesia via intraperitoneal injection of buprenorphine (0.5 mg/kg) every 12 hours for 72 hours, and sutures were removed after 7 days. Mice were sacrificed, at the indicated time points, by anesthesia followed with whole animal perfusion using 10% NBF, knees were harvested and fixed for 7 days in 10% NBF, decalcified for 7 days in 10% w/v EDTA, embedded in paraffin, and 10-μm sections were cut and mounted for Safranin-O/Fast Green or IF staining.
Semi-quantitative histopathologic grading was performed using a derivative of the Chambers' scoring system that has been established by the OARSI histopathology initiative as the standard method for grading of mouse cartilage degeneration. Based on this system, cartilage grading was carried out using Safranin-O/Fast Green-stained midsagittal sections. Three sections from representative levels (50 μm apart) of the medial compartment of the joint were selected for each sample and, which were evaluated in a randomized, blinded manner by 3 laboratory members. The 3 scores were averaged to calculate the section score, and the sample score was then calculated by averaging the scores obtained from the three levels. Grading was performed using the following scale: 0=normal cartilage, 0.5=loss of proteoglycan stain without cartilage damage, 1=mild superficial fibrillation, 2=fibrillation and/or clefting extending below the superficial zone, 3=mild (<25%) loss of cartilage, 4=moderate (25-50%) loss of cartilage, 5=severe (50-75%) loss of uncalcified cartilage, and 6=eburnation with >75% loss of cartilage. Grading was performed by three blinded observers (F.K., M.J.Z., and E.R.S.). Observer agreement was evaluated in pairs via calculation of a weighted kappa coefficient, using Fleiss-Cohen weights, as we have described. The F.K. versus M.J.Z. coefficient was 0.92, the F.K. versus E.R.S. coefficient was 0.94, and the M.J.Z. versus E.R.S coefficient was 0.89, all indicative of strong agreement between the observers.
Using Safranin-O/Fast Green-stained sections, the OsteoMetrics system was used to quantify the above parameters on three sections from representative levels (50 μm apart) of the medial compartment of the joint for each sample. Live images of the center of the knee joint were collected through an Olympus microscope (10× objective) outfitted with a camera, a stylus was used to trace the regions of interest (ROIs). A blinded observer quantified uncalcified articular cartilage area, total chondrocyte number and matrix-producing chondrocyte number using the built-in area calculation algorithms and quantification functions of the OsteoMeasure® system. […]

[2] = test system: Gas activity (cAMP content in cartilage); experiment: cAMP assay in tibial articular cartilage of drug-treated DMM mice; assay type: in vivo, mouse; conditions: daily ip week 8 to 12
Experimental: Drug treatment studies: In twelve-week old male wild type C57BL/6 mice that received DMM surgeries, vehicle (PBS), paroxetine (5 mg/kg/day), fluoxetine (5 mg/kg/day), gallein (10 mg/kg/day) or indomethacin (2.5 mg/kg/day) were administered daily by ip injection. Drug treatment was initiated 8 weeks following DMM to determine the role of GRK2 signaling in the progression of OA. Short term drug treatment study: To evaluate the acute effect of drug treatments, GRK2^f/f mice received sham or DMM surgery followed by treatment with vehicle, paroxetine, gallein, fluoxetine, or indomethacin with the doses indicated above for 1 week beginning at 8 weeks post DMM. All mice were sacrificed 9 weeks post DMM, 21 weeks of age, for analysis of OA progression. Gas activity was measured by quantifying cAMP content in cartilage pooled from 3 mice. Tibial cartilage was dissected out and snap frozen in liquid Nitrogen. As positive control, tibial cartilage obtained from normal mice was treated with 0.5 mM 3-isobutyl-1-methylxanthine (IBMX) for 30 minutes, followed by 0.1 mM Forskolin for 15 minutes, then snap frozen in liquid Nitrogen. For human cartilage cAMP content, 70 mg frozen cartilage were used. Frozen cartilage was pulverized using 500 μL lysis buffer as we have previously described (H. K. Le Bleu, Anal Biochem, 518, 134-138 (2017)). cAMP content was quantified using the Cyclic AMP XP Assay kit (Cell Signaling, #4339) and following manufacturer's protocol, with 0.5 mM IBMX added to the lysis buffer to prevent phosphodiesterase mediated cAMP degradation during the extraction process. cAMP levels in different groups were normalized to that of sham mice or the vehicle treated human cartilage.

DMM mice [3] = experiment: Anterior femoral synovial membrane thickness in DMM mice; assay type: in vivo, mouse; conditions: daily ip week 8 to 12, versus vehicle
Experimental: Drug treatment studies: In twelve-week old male wild type C57BL/6 mice that received DMM surgeries, vehicle (PBS), paroxetine (5 mg/kg/day), fluoxetine (5 mg/kg/day), gallein (10 mg/kg/day) or indomethacin (2.5 mg/kg/day) were administered daily by ip injection. Drug treatment was initiated 8 weeks following DMM to determine the role of GRK2 signaling in the progression of OA. Using Safranin-O/Fast Green-stained sections, the OsteoMetrics system was used to quantify the above parameters on three sections from representative levels (50 μm apart) of the medial compartment of the joint for each sample. Live images of the center of the knee joint were collected through an Olympus microscope (10× objective) outfitted with a camera, a stylus was used to trace the regions of interest (ROIs). A blinded observer quantified uncalcified articular cartilage area, total chondrocyte number and matrix-producing chondrocyte number using the built-in area calculation algorithms and quantification functions of the OsteoMeasure® system. […] The calcified cartilage was determined with a line drawn along the tide mark, which is the naturally occurring line separating the calcified and uncalcified regions of the articular cartilage. A second line was drawn at the chondro-osseous junction where the calcified cartilage meets the subchondral bone. The uncalcified cartilage area was determined by subtracting the calcified cartilage area from the total area of cartilage. Total chondrocyte number and matrix-producing chondrocyte number were counted within the uncalcified cartilage region using count functions within the histomorphometry system. Matrix-producing chondrocytes were counted based on the region of Safranin-O staining within the extracellular matrix surrounding the articular chondrocyte, indicating anabolic signaling to maintain matrix homeostasis. Similarly, the anterior femoral synovial thickness was measured using OsteoMeasure® software. Synovial membrane thickness extending from anterior horn of the medial meniscus to the femur was determined by drawing a line from the inner insertion point on the femur towards the attachment on the meniscus. A second line was drawn from the outer insertion of the femur towards the attachment to the meniscus. The synovial thickness was calculated by dividing total synovial area by synovial perimeter.

GRK2 = target: T1, GRK2 (Homo sapiens, UniProt P25098); conditions: from cited literature; cited from earlier work
T1 sequence (P25098 1-689): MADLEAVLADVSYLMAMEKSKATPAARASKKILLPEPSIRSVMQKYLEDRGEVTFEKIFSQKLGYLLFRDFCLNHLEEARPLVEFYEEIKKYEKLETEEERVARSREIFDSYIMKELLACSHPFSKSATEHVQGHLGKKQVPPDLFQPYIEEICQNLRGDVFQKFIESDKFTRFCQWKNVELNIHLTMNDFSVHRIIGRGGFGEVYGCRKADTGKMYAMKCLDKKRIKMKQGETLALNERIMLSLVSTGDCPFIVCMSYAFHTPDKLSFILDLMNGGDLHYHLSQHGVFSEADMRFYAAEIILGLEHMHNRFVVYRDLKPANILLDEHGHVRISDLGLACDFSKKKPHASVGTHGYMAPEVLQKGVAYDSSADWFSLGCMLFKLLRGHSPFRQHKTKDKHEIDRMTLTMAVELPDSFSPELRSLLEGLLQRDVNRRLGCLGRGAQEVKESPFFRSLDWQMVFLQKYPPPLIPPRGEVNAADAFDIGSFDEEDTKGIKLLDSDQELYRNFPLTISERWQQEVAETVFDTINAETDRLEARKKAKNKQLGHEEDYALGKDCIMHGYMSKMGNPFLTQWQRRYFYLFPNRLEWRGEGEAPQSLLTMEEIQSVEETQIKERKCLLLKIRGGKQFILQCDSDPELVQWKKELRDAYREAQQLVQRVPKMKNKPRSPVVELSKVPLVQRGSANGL

DMM mice [4] = experiment: Paroxetine combined with PTH in DMM mice: Micro-CT of subchondral bone; assay type: in vivo, mouse; conditions: daily from 8 weeks, harvest 12 weeks after surgery
DMM mice [5] = experiment: DMM mice treated with PTH, paroxetine or their combination: histology and histomorphometry (Example 1); assay type: in vivo, mouse; conditions: treatment week 8 to 12, PTH sc 40 μg/kg/day, paroxetine ip 5 mg/kg/day
Experimental: Methods: Destabilization of the medial meniscus (DMM) surgery was used to simulate clinical post-traumatic OA. First, we determined the role of GRK2 inhibition in PTH1R Gas-cAMP signaling: 12 week old male mice underwent sham or DMM surgery and were treated with either vehicle or the GRK2 inhibitor “paroxetine” (ip, 5 mg/kg/day), treatment was initiated at the time of surgery and continued daily until 8 weeks. Knees were harvested and articular cartilage was obtained for ex vivo analysis of Gas activity. In ex vivo culture, cartilage explants were treated with PTH as an agonist to stimulate PTH1R-Ga-cAMP signaling. Thirty minutes following PTH stimulation, cartilage tissue was homogenized and cAMP levels were measured. Then, we determined the role of GRK2 inhibition in recovering or even potentiating PTH1R signaling in OA cartilage: 12 week old male mice underwent sham or DMM surgery, and received treatment with vehicle, PTH (sc, 40 μg/kg/day) alone, the GRK2 inhibitor “paroxetine3” (ip, 5 mg/kg/day) alone, or their combination. Treatment was initiated at week 8 following DMM surgery, where OA is in progress, and continued until week 12 where mice were sacrificed. Knees were harvested, paraffin embedded, sectioned and stained with safranin-o and fast green for histological evaluation, OARSI scoring, and histomorphometric analysis. Results are expressed as mean values+s.e.m. with an N=5-8 mice per experimental group. Statistical analyses were performed using one ANVOA with P<0.05 representing statistical significance.

[6] = daily ip week 8 to 12, versus vehicle

| Molecule | cartilage degeneration (Safranin-O and Fast Green histology) (DMM mice [1]; daily ip week 8 to 12) | chondro-protective and matrix-regenerative effects (overall) (DMM mice [1]; daily ip week 8 to 12) | total number of chondrocytes (DMM mice [1]; daily ip week 8 to 12) | uncalcified cartilage area (DMM mice [1]; daily ip week 8 to 12) | OARSI score (DMM mice [1]; [6]) | number of matrix producing chondrocytes (DMM mice [1]; [6]) | cAMP levels in the articular cartilage [2] | synovial membrane thickness (DMM mice [3]) | GRK2 inhibitory effect (GRK2) | effect on the subchondral bone of OA mice (plate thickness, BMD, BV/TV, Tb.Th, osteophytes) (DMM mice [4]) | chondrocyte number (DMM mice [5]) | number of matrix-producing (anabolic) chondrocytes (DMM mice [5]) | uncalcified cartilage area (DMM mice [5]) |
| --- | --- | --- | --- | --- | --- | --- | --- | --- | --- | --- | --- | --- | --- |
| CNCCC(Oc1ccc(C(F)(F)F)cc1)c1ccccc1 (stereo not shown) [fluoxetine] | progressive cartilage degeneration | lacks chondro-protective and matrix-regenerative effects | only mild preservation | no preservation | high | low | not different from vehicle treated mice | attenuated | lacks any GRK2-inhibitory effects |  |  |  |  |
| parathyroid hormone [PTH] |  |  |  |  |  |  |  |  |  | deleterious effects | increased | particular increase | increased |
| COc1ccc2c(c1)c(CC(=O)O)c(C)n2C(=O)c1ccc(Cl)cc1 [indomethacin] | progressive cartilage degeneration | no chondro-protective or matrix-regenerative effects |  |  |  |  |  | significantly reduced |  |  |  |  |  |
